Data set [1] deals with T1, Carboxylesterase 1 isoform b (Ces1b) (Homo sapiens, UniProt P23141).
T1 construct: gene CES1
T1 sequence (P23141 18-567): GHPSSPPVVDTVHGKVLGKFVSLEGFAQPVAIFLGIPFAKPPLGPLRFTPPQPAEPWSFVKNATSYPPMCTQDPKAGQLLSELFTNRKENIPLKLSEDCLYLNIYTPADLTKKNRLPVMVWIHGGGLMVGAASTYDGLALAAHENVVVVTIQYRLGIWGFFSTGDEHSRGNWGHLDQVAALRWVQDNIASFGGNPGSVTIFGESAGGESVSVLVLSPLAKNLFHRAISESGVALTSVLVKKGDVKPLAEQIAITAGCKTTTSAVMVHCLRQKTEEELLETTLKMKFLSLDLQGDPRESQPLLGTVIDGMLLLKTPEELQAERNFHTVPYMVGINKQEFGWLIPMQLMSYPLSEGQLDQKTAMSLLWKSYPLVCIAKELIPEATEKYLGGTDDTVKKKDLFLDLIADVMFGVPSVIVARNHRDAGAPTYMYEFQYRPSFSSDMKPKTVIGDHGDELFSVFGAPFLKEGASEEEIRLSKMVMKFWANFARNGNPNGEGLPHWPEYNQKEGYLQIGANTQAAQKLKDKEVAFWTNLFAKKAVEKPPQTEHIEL
Description: inhibition of Amplex Red to resorufin conversion by recombinant Ces1b (fluorescence). The data set is classed as biochemical.

The target in data set [2] is T1, Carboxylesterase 1 isoform b (Ces1b). The experiment in a line: dose response of Amplex Red to resorufin conversion by recombinant Ces1b (fluorescence). The data set is classed as biochemical.
For data set [3] the target is unchanged. The experiment in a line: biochemical. To be noted: read-out: % inhibition at 100 μM.
Substrate in the data set “purified protein”: CC(=O)N1c2ccc(O)cc2Oc2cc(O)ccc21
The experiment in a line: purified protein. The note with it: docking: carbonyl carbon near Ser221, carbonyl oxygen in oxyanion hole of Gly142 and Gly143.

Consider `O=[N+]([O-])c1ccc(OP(=O)(O)Oc2ccc([N+](=O)[O-])cc2)cc1` [BNPP, bis(4-nitrophenyl)phosphate], for which the IC50 in data set [1] is about 0.15 µM.

On to `O=S(=O)(F)Cc1ccccc1` [PMSF, Phenylmethyl sulfonyl fluoride], for which the concentration for half-maximal inhibition (IC50) in data set [2] was about 5 µM.

Regarding `CN(C)C(=O)C(CCN1CCC(O)(c2ccc(Cl)cc2)CC1)(c1ccccc1)c1ccccc1` [LPM, Loperamide], the inhibition at 100 µM in data set [3] is about 50%.

B1: Carboxylesterase 1 isoform b (Ces1b) (Homo sapiens) (protein)
chain: GHPSSPPVVDTVHGKVLGKFVSLEGFAQPVAIFLGIPFAKPPLGPLRFTPPQPAEPWSFVKNATSYPPMCTQDPKAGQLLSELFTNRKENIPLKLSEDCLYLNIYTPADLTKKNRLPVMVWIHGGGLMVGAASTYDGLALAAHENVVVVTIQYRLGIWGFFSTGDEHSRGNWGHLDQVAALRWVQDNIASFGGNPGSVTIFGESAGGESVSVLVLSPLAKNLFHRAISESGVALTSVLVKKGDVKPLAEQIAITAGCKTTTSAVMVHCLRQKTEEELLETTLKMKFLSLDLQGDPRESQPLLGTVIDGMLLLKTPEELQAERNFHTVPYMVGINKQEFGWLIPMQLMSYPLSEGQLDQKTAMSLLWKSYPLVCIAKELIPEATEKYLGGTDDTVKKKDLFLDLIADVMFGVPSVIVARNHRDAGAPTYMYEFQYRPSFSSDMKPKTVIGDHGDELFSVFGAPFLKEGASEEEIRLSKMVMKFWANFARNGNPNGEGLPHWPEYNQKEGYLQIGANTQAAQKLKDKEVAFWTNLFAKKAVEKPPQTEHIEL
Regarding B1, the Km in the data set “purified protein” was 55 ± 12 µM.
